Species on record: Rattus norvegicus
Experiment: DrugMatrix - Regimen: Daily Repeat
Format: toxicity, organism-based, Sprague-Dawley
Set-up: regimen Daily Repeat, gender Male, age 6-8 weeks
Conditions: in vivo, sc, […], route mini-PUMP - SUBCUTANEOUS, dose level High, vehicle 100 % SALINE; for ABSOLUTE LYMPHOCYTE / ABSOLUTE MONOCYTE / BASOPHIL / EOSINOPHIL / ERYTHROCYTE COUNT / HEMATOCRIT / HEMOGLOBIN / LEUKOCYTE COUNT / MEAN CORPUSCULAR HEMOGLOBIN / MEAN CORPUSCULAR HEMOGLOBIN CONCENTRATION / MEAN CORPUSCULAR VOLUME / MONOCYTE / NEUTROPHIL / PLATELET COUNT / ABSOLUTE BASOPHIL / ABSOLUTE EOSINOPHIL / ABSOLUTE SEGMENTED NEUTROPHIL / NUCLEATED RED BLOOD CELLS: tissue Blood
[1] = 0.5 mg/kg, tissue Plasma, time 14 day
[2] = 72 h, dose 0.72 mg/Kg, time 3 day
[3] = 72 h, tissue Plasma, dose 0.72 mg/Kg, time 3 day
[4] = 120 h, dose 0.72 mg/Kg, time 5 day
[5] = 120 h, tissue Plasma, dose 0.72 mg/Kg, time 5 day
[6] = tissue Plasma, dose 0.72 mg/Kg, time 14 day

Work on `CC[C@H](C)[C@H](NC(=O)[C@H](Cc1ccc(O)cc1)NC(=O)[C@@H](NC(=O)[C@H](CCCNC(=N)N)NC(=O)[C@@H](N)CC(=O)O)C(C)C)C(=O)N[C@@H](Cc1cnc[nH]1)C(=O)N1CCC[C@H]1C(=O)N[C@@H](Cc1ccccc1)C(=O)O` [ANGIOTENSIN II] yielded an ABSOLUTE LYMPHOCYTE (0.5 mg/kg, time 14 day) of 9890 cells/µL, an ABSOLUTE MONOCYTE (0.5 mg/kg, time 14 day) of 390 cells/µL and a BASOPHIL (0.5 mg/kg, time 14 day) of 0.3%. The EOSINOPHIL (0.5 mg/kg, time 14 day) was 0.46%, the “ERYTHROCYTE COUNT” value (0.5 mg/kg, time 14 day) was 7.14 x10E6/uL and the HEMATOCRIT (0.5 mg/kg, time 14 day) was 45.2%. The HEMOGLOBIN (0.5 mg/kg, time 14 day) was 14.82 G/DL, the “LEUKOCYTE COUNT” value (0.5 mg/kg, time 14 day) was 13.29 x10E3/uL and the “MEAN CORPUSCULAR HEMOGLOBIN” value (0.5 mg/kg, time 14 day) was 20.82 pg. The “MEAN CORPUSCULAR HEMOGLOBIN CONCENTRATION” value (0.5 mg/kg, time 14 day) was 32.78 G/DL, the “MEAN CORPUSCULAR VOLUME” value (0.5 mg/kg, time 14 day) was 63.38 fL and the MONOCYTE (0.5 mg/kg, time 14 day) was 3.02%. For the same compound, the NEUTROPHIL (0.5 mg/kg, time 14 day) was 20.78%, the “PLATELET COUNT” value (0.5 mg/kg, time 14 day) was 1204.2 x10E3/uL and the ALBUMIN [1] was 3.98 G/DL. For the same compound, the “ALKALINE PHOSPHATASE” value [1] was 370.2 u/L, the “ASPARTATE AMINOTRANSFERASE” value [1] was 94.8 u/L and the “BLOOD UREA NITROGEN” value [1] was 19 mg/dL. The “CARBON DIOXIDE” value [1] was 41 mmol/L, the CHOLESTEROL [1] was 66.8 mg/dL and the “CREATINE PHOSPHOKINASE” value [1] was 324.4 u/L. The CREATININE [1] was 0.74 mg/dL, the GLUCOSE [1] was 138.2 mg/dL and the “LACTATE DEHYDROGENASE” value [1] was 202.4 u/L. For the same compound, the PHOSPHORUS [1] was 9.74 mg/dL, the POTASSIUM [1] was 5.88 MEQ/L and the SODIUM [1] was 149.8 MEQ/L. For the same compound, the “TOTAL BILIRUBIN” value [1] was 0.44 mg/dL, the “URIC ACID” value [1] was 0.7 mg/dL and the “ABSOLUTE BASOPHIL” value [2] was 0 CELLS/uL. For the same compound, the “ABSOLUTE EOSINOPHIL” value [2] was 0 CELLS/uL, the “ABSOLUTE LYMPHOCYTE” value [2] was 11891.33 CELLS/uL and the “ABSOLUTE MONOCYTE” value [2] was 399.33 CELLS/uL. For the same compound, the “ABSOLUTE SEGMENTED NEUTROPHIL” value [2] was 1676 CELLS/uL, the BASOPHIL [2] was 0% and the EOSINOPHIL [2] was 0%. The “ERYTHROCYTE COUNT” value [2] was 6.49 x10E6/uL, the HEMATOCRIT [2] was 38.87% and the HEMOGLOBIN [2] was 14.23 G/DL. The “LEUKOCYTE COUNT” value [2] was 13.97 x10E3/uL, the “MEAN CORPUSCULAR HEMOGLOBIN” value [2] was 21.93 pg and the “MEAN CORPUSCULAR HEMOGLOBIN CONCENTRATION” value [2] was 36.63 G/DL. For the same compound, the “MEAN CORPUSCULAR VOLUME” value [2] was 59.9 fL, the MONOCYTE [2] was 2.67% and the NEUTROPHIL [2] was 12%. For the same compound, the “NUCLEATED RED BLOOD CELLS” value [2] was 0 /100WBC, the “PLATELET COUNT” value [2] was 1285 x10E3/uL and the ALBUMIN [3] was 4.4 G/DL. For the same compound, the “ALKALINE PHOSPHATASE” value [3] was 340 u/L, the “ASPARTATE AMINOTRANSFERASE” value [3] was 83.67 u/L and the “BLOOD UREA NITROGEN” value [3] was 25.67 mg/dL. The “CARBON DIOXIDE” value [3] was 28.67 mmol/L, the CHOLESTEROL [3] was 90.33 mg/dL and the CREATININE [3] was 0.22 mg/dL. For the same compound, the GLUCOSE [3] was 151.33 mg/dL, the “LACTATE DEHYDROGENASE” value [3] was 469.67 u/L and the PHOSPHORUS [3] was 10.63 mg/dL. For the same compound, the POTASSIUM [3] was 5.96 MEQ/L, the SODIUM [3] was 143.73 MEQ/L and the “TOTAL BILIRUBIN” value [3] was 0.2 mg/dL. For the same compound, the “URIC ACID” value [3] was 2 mg/dL, the “ABSOLUTE BASOPHIL” value [4] was 0 CELLS/uL and the “ABSOLUTE EOSINOPHIL” value [4] was 202.67 CELLS/uL. The “ABSOLUTE LYMPHOCYTE” value [4] was 15280.67 CELLS/uL, the “ABSOLUTE MONOCYTE” value [4] was 168.67 CELLS/uL and the “ABSOLUTE SEGMENTED NEUTROPHIL” value [4] was 1814.67 CELLS/uL. For the same compound, the BASOPHIL [4] was 0%, the EOSINOPHIL [4] was 1.33% and the “ERYTHROCYTE COUNT” value [4] was 6.42 x10E6/uL. The HEMATOCRIT [4] was 38.03%, the HEMOGLOBIN [4] was 14.03 G/DL and the “LEUKOCYTE COUNT” value [4] was 17.47 x10E3/uL. The “MEAN CORPUSCULAR HEMOGLOBIN” value [4] was 21.87 pg, the “MEAN CORPUSCULAR HEMOGLOBIN CONCENTRATION” value [4] was 36.9 G/DL and the “MEAN CORPUSCULAR VOLUME” value [4] was 59.23 fL. For the same compound, the MONOCYTE [4] was 1%, the NEUTROPHIL [4] was 10.33% and the “NUCLEATED RED BLOOD CELLS” value [4] was 0 /100WBC. For the same compound, the “PLATELET COUNT” value [4] was 1412 x10E3/uL, the ALBUMIN [5] was 4.23 G/DL and the “ALKALINE PHOSPHATASE” value [5] was 297.67 u/L. For the same compound, the “ASPARTATE AMINOTRANSFERASE” value [5] was 85 u/L, the “BLOOD UREA NITROGEN” value [5] was 26 mg/dL and the “CARBON DIOXIDE” value [5] was 27.33 mmol/L. The CHOLESTEROL [5] was 71 mg/dL, the CREATININE [5] was 0.21 mg/dL and the GLUCOSE [5] was 137 mg/dL. For the same compound, the “LACTATE DEHYDROGENASE” value [5] was 451.33 u/L, the PHOSPHORUS [5] was 11.73 mg/dL and the POTASSIUM [5] was 6.62 MEQ/L. The SODIUM [5] was 144.83 MEQ/L, the “TOTAL BILIRUBIN” value [5] was 0.2 mg/dL and the “URIC ACID” value [5] was 2.03 mg/dL. For the same compound, the “ABSOLUTE BASOPHIL” value (dose 0.72 mg/Kg, time 14 day) was 0 CELLS/uL, the “ABSOLUTE EOSINOPHIL” value (dose 0.72 mg/Kg, time 14 day) was 135.4 CELLS/uL and the “ABSOLUTE LYMPHOCYTE” value (dose 0.72 mg/Kg, time 14 day) was 12908 CELLS/uL. For the same compound, the “ABSOLUTE MONOCYTE” value (dose 0.72 mg/Kg, time 14 day) was 411.8 CELLS/uL, the “ABSOLUTE SEGMENTED NEUTROPHIL” value (dose 0.72 mg/Kg, time 14 day) was 3124.8 CELLS/uL and the BASOPHIL (dose 0.72 mg/Kg, time 14 day) was 0%. The EOSINOPHIL (dose 0.72 mg/Kg, time 14 day) was 0.8%, the “ERYTHROCYTE COUNT” value (dose 0.72 mg/Kg, time 14 day) was 6.73 x10E6/uL and the HEMATOCRIT (dose 0.72 mg/Kg, time 14 day) was 38.96%. The HEMOGLOBIN (dose 0.72 mg/Kg, time 14 day) was 14.36 G/DL, the “LEUKOCYTE COUNT” value (dose 0.72 mg/Kg, time 14 day) was 16.58 x10E3/uL and the “MEAN CORPUSCULAR HEMOGLOBIN” value (dose 0.72 mg/Kg, time 14 day) was 21.34 pg. For the same compound, the “MEAN CORPUSCULAR HEMOGLOBIN CONCENTRATION” value (dose 0.72 mg/Kg, time 14 day) was 36.86 G/DL, the “MEAN CORPUSCULAR VOLUME” value (dose 0.72 mg/Kg, time 14 day) was 57.88 fL and the MONOCYTE (dose 0.72 mg/Kg, time 14 day) was 2.6%. The NEUTROPHIL (dose 0.72 mg/Kg, time 14 day) was 17.8%, the “NUCLEATED RED BLOOD CELLS” value (dose 0.72 mg/Kg, time 14 day) was 0 /100WBC and the “PLATELET COUNT” value (dose 0.72 mg/Kg, time 14 day) was 976.2 x10E3/uL. The ALBUMIN [6] was 4.22 G/DL, the “ALKALINE PHOSPHATASE” value [6] was 388 u/L and the “ASPARTATE AMINOTRANSFERASE” value [6] was 100.6 u/L. The “BLOOD UREA NITROGEN” value [6] was 31 mg/dL, the “CARBON DIOXIDE” value [6] was 34.2 mmol/L and the CHOLESTEROL [6] was 70.6 mg/dL. For the same compound, the CREATININE [6] was 0.27 mg/dL, the GLUCOSE [6] was 174 mg/dL and the “LACTATE DEHYDROGENASE” value [6] was 122.4 u/L. For the same compound, the PHOSPHORUS [6] was 11.92 mg/dL, the POTASSIUM [6] was 5.67 MEQ/L and the SODIUM [6] was 147.54 MEQ/L. For the same compound, the “TOTAL BILIRUBIN” value [6] was 0.2 mg/dL and the “URIC ACID” value [6] was 2.4 mg/dL.
